Literature values as cited in patent US10499664B2, “Fish feed formulation of Hypericum perforatum, Rosamarinus officianalis or a mixture thereof” (UNIVERSIDAD DE SANTIAGO DE CHILE, priority 2015, dated 2019).

Tests used:
Conditions in all cases: pre-treatment, inflamed mouse ears
[1] = tested on: TNF-α
[2] = tested on: COX-2
[3] = tested on: IL-1β

Row | Structure (SMILES) | TNF-α gene expression [1] | COX-2 inhibition [2] | IL-1β gene expression [3]
1 | CC(C)c1cc2c(c(O)c1O)[C@@]13CCCC(C)(C)[C@@H]1C[C@@H]2OC3=O [carnosol] | reducing their expression | selectively inhibiting | reducing their expression
2 | CC(C)c1cc2c(c(O)c1O)[C@@]1(C(=O)O)CCCC(C)(C)[C@@H]1CC2 [carnosic acid] | reducing their expression | selectively inhibiting | reducing their expression
